Data published in PMC3011871, “Purification and Biochemical Characterization of a Specific β-Glucosidase from the Digestive Fluid of Larvae of the Palm Weevil, Rhynchophorus palmarum” (Journal of Insect Science, 2009).

What was measured:
[1] = test system: T1, β-glucosidase from the digestive fluid of Rhynchophorus palmarum larvae; experiment: glucose release by glucose oxidase-peroxidase, Lineweaver-Burk; assay type: biochemical; conditions: 100 mM acetate buffer pH 5.0, 37°C
T1 construct: gene cellobiase; native, purified from larval digestive fluid (Abidjan, Côte d'Ivoire); monomer, 58 kDa SDS-PAGE, 60 kDa gel filtration
Description: glucose release by glucose oxidase-peroxidase, Lineweaver-Burk on β-glucosidase from the digestive fluid of Rhynchophorus palmarum larvae

[2] = test system: T1, β-glucosidase from the digestive fluid of Rhynchophorus palmarum larvae; experiment: p-nitrophenol release at […] nm, Lineweaver-Burk; assay type: biochemical; conditions: 100 mM acetate buffer pH 5.0, 37°C

SMILES | Km [1] | Km [2]
OC[C@H]1O[C@@H](O[C@H]2[C@H](O)[C@@H](O)C(O)O[C@@H]2CO)[C@H](O)[C@@H](O)[C@@H]1O (some centres unmarked) [cellobiose] | 310 µM | –
O=[N+]([O-])c1ccc(O[C@@H]2O[C@H](CO)[C@@H](O)[C@H](O)[C@H]2O)cc1 [p-nitrophenyl-β-D-glucopyranoside] | – | 250 µM
